From patent US20260250318A1, “COMPOSITIONS AND METHODS FOR CROSSING THE BLOOD BRAIN BARRIER” (VOYAGER THERAPEUTICS, INC., priority 2022, published 2026)

Columns and labels:
[1] = system: brains, heart, liver, muscle, and DRG of the NHPs; assay: Maturation of TTM-001 and TTM-002 capsids, NGS enrichment in NHP tissues; type: in vivo; conditions: relative to AAV9 control
How it was run: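 Variants carry mutations within and flanking the loop IV peptide insert: positions 450–466 were triplet-randomized, while positions 449–466 received low-frequency point mutations. The combined pool went into two NHPs, and each peptide was scored by NGS enrichment ratio against AAV9.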

[2] = system: brain; assay: Matured TTM-001 and TTM-002 variants, NGS enrichment in mouse brain; type: in vivo, mice; conditions: relative to AAV9 control
[3] = NGS fold-enrichment of matured AAV capsid variants, NHP brain, RNA
[4] = NGS fold-enrichment, DRG of NHPs
[5] = NGS fold-enrichment, RNA, brain of NHPs
[6] = NGS fold-enrichment, heart of NHPs
[7] = NGS fold-enrichment, liver DNA of NHPs
[8] = NGS fold-enrichment, liver RNA of NHPs
[9] = NGS fold-enrichment, muscle of NHPs
[10] = NGS fold-enrichment, brain of mice
[11] = NGS fold-enrichment of RNA, NHP brain
[12] = NGS fold-enrichment, NHP liver DNA
[13] = NGS fold-enrichment, NHP liver RNA
[14] = NGS fold-enrichment, NHP muscle
[15] = NGS fold-enrichment, mouse brain

Sequence | Fold Enrichment relative to AAV9, Brain (NHP) [1, 3] | Fold Enrichment relative to AAV9, DRG (NHP) ([1]; NHP DRG) | Fold Enrichment relative to AAV9, Heart (NHP) ([1]; NHP heart) | Fold Enrichment relative to AAV9, Liver DNA (NHP) ([1]; NHP liver, DNA) | Fold Enrichment relative to AAV9, Liver RNA (NHP) ([1]; NHP liver, RNA) | Fold Enrichment relative to AAV9, Muscle (NHP) ([1]; NHP muscle) | Fold Enrichment relative to AAV9, Brain (Mouse) ([2]; mouse brain) | Fold Enrichment relative to AAV9, DRG (NHP) [1, 4] | Fold Enrichment relative to AAV9, Brain (NHP) [1, 5] | Fold Enrichment relative to AAV9, Heart (NHP) [1, 6] | Fold Enrichment relative to AAV9, Liver DNA (NHP) [1, 7] | Fold Enrichment relative to AAV9, Liver RNA (NHP) [1, 8] | Fold Enrichment relative to AAV9, Muscle (NHP) [1, 9] | Fold Enrichment relative to AAV9, Brain (Mouse) [2, 10] | further results
KTINGSGSPHSKAQAKGT | 51.727 fold | 0.048 fold | 0.016 fold | 0.525 fold | 0.271 fold | 0.000 fold | 104.917 fold |  |  |  |  |  |  |  | 
KTINGSGSPHSKAQNIII | 56.630 fold | 0.000 fold | 0.062 fold | 0.056 fold | 0.099 fold | 0.123 fold | 76.742 fold |  |  |  |  |  |  |  | 
KNCLGSGSPHSKAQNQQT |  |  |  |  |  |  |  | 0.000 fold | 61.442 fold | 0.036 fold | 0.026 fold | 1.849 fold | 0.000 fold | 82.488 fold | 
KTIKGNDSPHKSVQNQQT |  |  |  |  |  |  |  |  |  |  |  |  |  |  | Fold Enrichment relative to AAV9, Brain (NHP) [1, 11]: 85.986 fold; Fold Enrichment relative to AAV9, DRG (NHP) ([1]; NGS fold-enrichment, NHP DRG): 0.000 fold; Fold Enrichment relative to AAV9, Heart (NHP) ([1]; NGS fold-enrichment, NHP heart): 0.135 fold; Fold Enrichment relative to AAV9, Liver DNA (NHP) [1, 12]: 0.000 fold; Fold Enrichment relative to AAV9, Liver RNA (NHP) [1, 13]: 0.263 fold; Fold Enrichment relative to AAV9, Muscle (NHP) [1, 14]: 0.000 fold; Fold Enrichment relative to AAV9, Brain (Mouse) [2, 15]: 8.603 fold
KTVPNSGSPHSKAQNQQT |  |  |  |  |  |  |  | 0.000 fold | 62.540 fold | 0.000 fold | 0.161 fold | 0.202 fold | 0.011 fold | 93.793 fold | 
KTINGSGSPHSKLQKQQT | 52.144 fold | 0.615 fold | 0.477 fold | 0.429 fold | 1.113 fold | 1.071 fold | 61.833 fold |  |  |  |  |  |  |  | 
KTINGSGSPHSKAQDRPT |  |  |  |  |  |  |  | 0.132 fold | 70.831 fold | 0.006 fold | 0.379 fold | 0.039 fold | 0.000 fold | 66.800 fold | 
KAINGHDSPHKSGQSPQT |  |  |  |  |  |  |  |  |  |  |  |  |  |  | Fold Enrichment relative to AAV9, Brain (NHP) [1, 11]: 75.734 fold; Fold Enrichment relative to AAV9, DRG (NHP) ([1]; NGS fold-enrichment, NHP DRG): 0.095 fold; Fold Enrichment relative to AAV9, Heart (NHP) ([1]; NGS fold-enrichment, NHP heart): 0.148 fold; Fold Enrichment relative to AAV9, Liver DNA (NHP) [1, 12]: 0.238 fold; Fold Enrichment relative to AAV9, Liver RNA (NHP) [1, 13]: 0.000 fold; Fold Enrichment relative to AAV9, Muscle (NHP) [1, 14]: 0.000 fold; Fold Enrichment relative to AAV9, Brain (Mouse) [2, 15]: 14.195 fold
KTINGHDSPHKSGQSVQT |  |  |  |  |  |  |  |  |  |  |  |  |  |  | Fold Enrichment relative to AAV9, Brain (NHP) [1, 11]: 75.748 fold; Fold Enrichment relative to AAV9, DRG (NHP) ([1]; NGS fold-enrichment, NHP DRG): 0.010 fold; Fold Enrichment relative to AAV9, Heart (NHP) ([1]; NGS fold-enrichment, NHP heart): 6.808 fold; Fold Enrichment relative to AAV9, Liver DNA (NHP) [1, 12]: 0.058 fold; Fold Enrichment relative to AAV9, Liver RNA (NHP) [1, 13]: 0.165 fold; Fold Enrichment relative to AAV9, Muscle (NHP) [1, 14]: 0.000 fold; Fold Enrichment relative to AAV9, Brain (Mouse) [2, 15]: 9.321 fold
KTDLKSGSPHSKAQNQQT |  |  |  |  |  |  |  | 0.000 fold | 63.152 fold | 0.000 fold | 0.377 fold | 0.285 fold | 0.012 fold | 62.687 fold | 
KTINGIGSPHSKAQNLGT |  |  |  |  |  |  |  | 0.000 fold | 70.543 fold | 0.071 fold | 0.135 fold | 0.000 fold | 0.000 fold | 104.769 fold | 
KTINGHDSPHKSGRTQET |  |  |  |  |  |  |  |  |  |  |  |  |  |  | Fold Enrichment relative to AAV9, Brain (NHP) [1, 11]: 81.599 fold; Fold Enrichment relative to AAV9, DRG (NHP) ([1]; NGS fold-enrichment, NHP DRG): 0.000 fold; Fold Enrichment relative to AAV9, Heart (NHP) ([1]; NGS fold-enrichment, NHP heart): 0.062 fold; Fold Enrichment relative to AAV9, Liver DNA (NHP) [1, 12]: 0.137 fold; Fold Enrichment relative to AAV9, Liver RNA (NHP) [1, 13]: 0.000 fold; Fold Enrichment relative to AAV9, Muscle (NHP) [1, 14]: 0.000 fold; Fold Enrichment relative to AAV9, Brain (Mouse) [2, 15]: 7.270 fold
KTINGSGSPHSKAQRDQT | 51.897 fold | 0.069 fold | 0.014 fold | 0.554 fold | 0.867 fold | 0.040 fold | 102.317 fold |  |  |  |  |  |  |  | 
KTGNGSGSPHSKAQIQQT | 52.809 fold | 0.000 fold | 0.000 fold | 0.012 fold | 0.000 fold | 0.000 fold | 98.291 fold |  |  |  |  |  |  |  | 
KTINGGGSPHSKAQNQMT | 55.778 fold | 0.000 fold | 0.000 fold | 0.012 fold | 0.866 fold | 0.000 fold | 73.177 fold |  |  |  |  |  |  |  | 
KTINGSGSPHSKAQRDIT | 52.415 fold | 0.098 fold | 0.000 fold | 0.605 fold | 1.784 fold | 0.008 fold | 88.122 fold |  |  |  |  |  |  |  | 
KTINGSGSPHSKAQVGHT | 52.624 fold | 0.000 fold | 0.000 fold | 0.192 fold | 0.535 fold | 0.006 fold | 106.448 fold |  |  |  |  |  |  |  | 
KTINGSGSPHSKAQYIHT |  |  |  |  |  |  |  | 0.000 fold | 76.170 fold | 0.014 fold | 0.168 fold | 1.523 fold | 0.033 fold | 59.649 fold | Fold Enrichment relative to AAV9, Brain (NHP) [1, 11]: 76.170 fold; Fold Enrichment relative to AAV9, DRG (NHP) ([1]; NGS fold-enrichment, NHP DRG): 0.000 fold; Fold Enrichment relative to AAV9, Heart (NHP) ([1]; NGS fold-enrichment, NHP heart): 0.014 fold; Fold Enrichment relative to AAV9, Liver DNA (NHP) [1, 12]: 0.168 fold; Fold Enrichment relative to AAV9, Liver RNA (NHP) [1, 13]: 1.523 fold; Fold Enrichment relative to AAV9, Muscle (NHP) [1, 14]: 0.033 fold; Fold Enrichment relative to AAV9, Brain (Mouse) [2, 15]: 59.649 fold
